The source of these data is patent US10335365B2, “Bladder cancer specific ligand peptides” (The Regents of the University of California, priority 2009, dated 2019).

The subject of assay [1] is normal urothelial cells. The assay can be described thus: Whole cell bead binding assay, normal urothelial cells. Further details: species or system human. Particulars: peptide on OBOC beads. As to the method: (§1) Four bladder cancer cell lines including 5637 (HTB-9), SCaBER, TCCSUP (HTB-5), and T24 (HTB-4) were purchased from the American Type Culture Collection (Manassas, Va.). The isolation, characterization and maintenance of normal urothelial cells was previously described in detail (Bagai, et al., J Biol Chem, (2002) 277: 23828-23837). Normal peripheral blood mononuclear cells were prepared by using the Ficoll-Paque gradient method from peripheral blood of healthy donors. Bladder cancer tissue obtained from cystectomy was cut into pieces, digested with collagenase at 37° C. for 1-2 hours per the manufacturer's protocol, and filtered through a 40-μm strainer to make single cell suspension. Tumor cells were then isolated with Ficoll-Paque gradient method (800 g, 30 min at 4° C.). Informed consent was obtained from each patient or healthy donor before specimens were collected.
(§2) The beads were washed extensively with double-distilled water and phosphate-buffered saline (PBS) before screening. Bladder cancer cells and normal urothelial cells were detached from culture dishes with trypsin/EDTA or a Detach kit (PromoCell, Heidelberg, Germany), washed with their corresponding culture medium, resuspended at 10^6 cells/ml and incubated with OBOC beads in Petri dishes in a humidified CO2 incubator at 37° C. with shaking (60 rpm). […]

The subject of assay [2] is whole blood cells. The assay can be described thus: Whole cell bead binding assay, whole blood cells. Set-up: species or system human. The following applies: peptide on beads.
Assay [3] concerns Human bladder cancer cell line 5637. The assay can be described thus: Whole cell binding assay of Example 2, 5637 positive control. The following applies: PLZ4 beads, 10^6 cells/ml. Here is the method: (§3) This experiment was repeated 3 times for cell lines. […] 5637 human bladder cancer cell line; b. […] The average diameter of the beads is 90 μm. […] This experiment was repeated for 3 times. (200×)
(§4) To determine the binding of PLZ4 to canine TCC cell lines, whole cell binding assay was performed. PLZ4 was synthesized on TentaGel S NH2 resin beads (Rapp Polymere Gmbh, Germany) (Pegram, et al., J Clin Oncol (1998) 16:2659-2671), and incubated with single suspensions of five different canine carcinoma cell lines including K9TCC-PU, K9TCC-PU-AxA, K9TCC-PU-In, K9TCC-PU-AxC, and K9TCC-PU-Nk (kindly provided by Deborah Knapp at Purdue University, West Lafayette, Ind., USA) at 10^6 cells/ml. The negative control was normal urothelial cells obtained from dogs that were euthanized due to non-bladder-related disorders. Human bladder cancer cell line, 5637 were served as the positive control. If PLZ4 bound to cells in suspension, then the bead surface was covered with cells. Over 95% of the bead surface was covered with 5637 and K9TCC cells (FIG. 7A-a and b, respectively).

For assay [4], the system named is 5637 TCC cancer cells. The assay can be described thus: Bead binding to 5637 cells in urine at pH 6.0. Particulars: urine at pH 6.0, 4 hours, 37° C. Further details: species or system human. Here is the method:
The acidic environment in urine may change the 3-D structure of ligands and affect ligand binding. Here it was determined if the cancer-specific beads could bind to 5637 TCC cancer cells in urine. Cells were incubated with beads in urine at pH 6.0 for 4 hours at 37° C. 4-hour incubation was used to mimic the in vivo urine retention in patients and to permit conformational changes and protease digestion.

Assay [5] deals with cancer cells from canine bladder TCC clinical specimen. The assay can be described thus: Binding to canine bladder TCC clinical specimen cells.
For assay [6], the system named is K9TCC cells. The assay can be described thus: Whole cell binding assay of Example 2, canine TCC cells. Particulars: PLZ4 beads, 10^6 cells/ml. Here is the method:
as §3, §4

The target of assay [7] is T1, K562 cells transfected with a503 integrin (Homo sapiens, UniProt P05106+P06756).
T1 construct: expressed in transfected cells; host or cells: K562
The assay can be described thus: Bead binding to K562 cells transfected with integrin. Particulars: OBOC beads bearing PLZ4. As to the method:
Here, OBOC beads bearing PLZ4 peptides on the surface were incubated with K562 cells transfected with various integrins. K562 cells express endogenous a501 integrin. […] Several other ligands obtained from the initial screening also contain the DGR motif. […] To identify which amino acids are involved in determining cell binding and binding specificity, “alanine walk” was performed combined with the rainbow bead coding methods (Luo, et al., J Comb Chem, (2008) 10: 599-604). The amino acids aspartic acid (D, the X2 position), arginine (R, X4) and phenylalanine (F, X7) are important for cell binding. Replacement of any of these amino acids with alanine completely abolished the binding of the peptides to 5637 cells (FIG. 6B). […] Methionine at the X5 position could be replaced to many other amino acids without compromising the binding affinity. Based on this analysis, the three amino acids (D, G and R) at the N-terminus together with the two amino acids (G and F) at the C-terminus determine the binding specificity. Therefore, the binding pocket may be in the clover shape: one for the N-terminal three amino acids, one for the C-terminal two amino acids and a middle pocket. So w the depth of the middle binding pocket by adding different numbers of glycine residue to the X5 position. […]

Assay [8] concerns peripheral blood mononuclear cells (PBMC). The assay can be described thus: Whole cell bead binding assay, PBMC. Set-up: species or system human. Particulars: peptide on beads. As to the method: as §1, §2
The test system of assay [9] is 5637 cells. The assay can be described thus: Flow cytometry binding affinity on 5637 cells. The following applies: PLZ4-biotin with streptavidin-PE. Further details: species or system human. As to the method: All of the following steps were done on ice. 5×10^5 5637 cells were washed 3 times with 1 ml cold PBS (pH 7.4)-BSA (1%), re-suspended with 300 μl cold BSA (5%)-PBS (pH 7.4), and then incubated for 1 hour on ice. The cells were centrifuged and suspended with 50 μl PLZ4-biotin solution at 800, 400, 200, 100, 50, 25, 10, 5, 2.5, 1, 0.1, and 0 μM, and incubated for 1 hour on ice. Cells treated without PLZ4-biotin was considered as a control. After washing 6 times with 1 ml cold PBS-Tween-20 (0.05%) buffer, cells were re-suspended with 50 μl streptavidin (SA)-PE (1:500 in PBS-BSA, 1%) (1 mg/ml, Invitrogen, Carlsbad, Calif.), incubated for 1 hour on ice, washed with PBS (pH 7.4) 3 times, re-suspended with 500 μl PBS (pH 7.4), and analyzed using a Coulter Epics XL-MCL flow cytometer (Beckman Coulter, Inc.). The experiment was repeated three times. The mean value was expressed in FIG. 4.
Next, it was determined if fluorescence cell sorting could be used to identify bladder cancer cells. PLZ4 peptide conjugated to biotin through hydrophilic linkers was synthesized. Biotinylated PLZ4 was then incubated with streptavidin-PE to generate PLZ4-PE conjugate through the strong binding of biotin and streptavidin. […] The binding affinity (Kd) is around 30 μM.
A general note: Flow cytometry measures light scatter and fluorescence of single cells or particles in a stream.

“Also recorded” adds a separate entry of the source. Positions of bridges follow the written chain, without caps; N, C: chain ends. Non-standard residues stand in square brackets, D forms with d. No end group written: not given here.

For orientation: Kd means the equilibrium constant for the complex coming apart.

T1 sequence (P06756 31-889 limits assumed): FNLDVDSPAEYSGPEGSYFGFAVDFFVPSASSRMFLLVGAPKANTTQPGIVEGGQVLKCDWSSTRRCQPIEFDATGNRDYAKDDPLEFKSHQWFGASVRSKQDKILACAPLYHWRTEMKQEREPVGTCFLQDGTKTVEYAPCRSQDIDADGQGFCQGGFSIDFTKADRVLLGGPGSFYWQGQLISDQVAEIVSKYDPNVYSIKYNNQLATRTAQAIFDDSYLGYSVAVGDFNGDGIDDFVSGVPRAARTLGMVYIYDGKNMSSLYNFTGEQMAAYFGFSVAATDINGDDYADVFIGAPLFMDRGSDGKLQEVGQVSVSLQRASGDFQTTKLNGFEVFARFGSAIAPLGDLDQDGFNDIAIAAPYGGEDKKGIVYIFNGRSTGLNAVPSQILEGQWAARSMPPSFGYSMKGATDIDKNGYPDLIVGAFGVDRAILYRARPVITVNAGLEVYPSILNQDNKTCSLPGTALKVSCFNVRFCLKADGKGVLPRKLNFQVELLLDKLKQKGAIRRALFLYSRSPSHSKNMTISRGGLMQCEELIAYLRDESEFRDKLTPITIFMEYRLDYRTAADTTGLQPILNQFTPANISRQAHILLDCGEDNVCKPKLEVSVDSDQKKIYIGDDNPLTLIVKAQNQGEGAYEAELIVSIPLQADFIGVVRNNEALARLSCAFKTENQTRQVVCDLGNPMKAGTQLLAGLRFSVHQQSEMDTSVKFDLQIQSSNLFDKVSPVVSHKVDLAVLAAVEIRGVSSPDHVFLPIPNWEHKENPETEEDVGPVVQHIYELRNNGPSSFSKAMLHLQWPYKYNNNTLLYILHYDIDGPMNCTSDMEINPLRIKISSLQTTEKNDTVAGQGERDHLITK
T1 sequence (P06756 891-1048 partner limits assumed): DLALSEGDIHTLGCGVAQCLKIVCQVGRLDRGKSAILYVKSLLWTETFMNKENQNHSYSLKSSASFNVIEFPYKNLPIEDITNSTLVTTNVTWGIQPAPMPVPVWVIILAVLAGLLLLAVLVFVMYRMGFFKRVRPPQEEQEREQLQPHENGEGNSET
T1 sequence (P05106 27-788): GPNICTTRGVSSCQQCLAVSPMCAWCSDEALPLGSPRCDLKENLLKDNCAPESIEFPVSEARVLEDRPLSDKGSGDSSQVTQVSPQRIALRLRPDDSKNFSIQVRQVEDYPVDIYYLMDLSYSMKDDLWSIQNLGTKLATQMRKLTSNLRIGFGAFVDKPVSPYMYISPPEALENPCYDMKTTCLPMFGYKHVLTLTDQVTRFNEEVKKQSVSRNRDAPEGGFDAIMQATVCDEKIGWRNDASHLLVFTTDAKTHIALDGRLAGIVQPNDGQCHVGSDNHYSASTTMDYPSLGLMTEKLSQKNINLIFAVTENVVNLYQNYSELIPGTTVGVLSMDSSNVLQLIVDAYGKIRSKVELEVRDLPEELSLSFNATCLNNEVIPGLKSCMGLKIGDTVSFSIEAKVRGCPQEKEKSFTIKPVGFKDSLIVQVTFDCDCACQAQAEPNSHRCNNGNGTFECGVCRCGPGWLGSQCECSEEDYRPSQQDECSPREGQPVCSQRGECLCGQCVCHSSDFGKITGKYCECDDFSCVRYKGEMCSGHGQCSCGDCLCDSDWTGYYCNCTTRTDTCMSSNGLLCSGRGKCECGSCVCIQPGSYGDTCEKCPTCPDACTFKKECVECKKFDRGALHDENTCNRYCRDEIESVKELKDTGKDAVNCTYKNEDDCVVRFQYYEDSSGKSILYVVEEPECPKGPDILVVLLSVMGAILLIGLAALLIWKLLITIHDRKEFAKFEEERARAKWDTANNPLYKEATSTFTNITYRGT

As for “cQDGRMGFc ([dC]QDGRMGF[dC]; disulfide 1-9 (inferred)) [PLZ4, bladder cancer-specific ligand peptide]”, the “binding to normal urothelial cells” value in assay [1] is “did not bind”. The “binding to whole blood cells” value in assay [2] is on record as “did not bind”. Besides, the “bead surface covered with cells” value in assay [3] and in assay [6] was “Over 95%” each time. The “binding to 5637 cells in urine” value in [4] is reported as “still able to bind cells in urine”. For the same substance, the “binding to primary canine bladder cancer cells from a clinical specimen” value in assay [5] is on record as “could bind to primary canine bladder cancer cells; also recorded: could bind to cancer cells from one canine bladder TCC clinical specimen”. Moreover, the “binding to K562 cells transfected with a503 integrin” value in assay [7] is recorded as “bound”. Moreover, in assay [8], the “binding to peripheral blood mononuclear cells” value is listed as “did not bind”. This substance yielded a Kd in assay [9] of approximately 30 µM.
